Among the data in the supplement of paper PMC10307832 are relative viability values, retold here.

Common to all, as to assay: relative viability (nuclei count vs DMSO), 5 days (fraction); higher = more cells survive
Compound in the assay “BMX-IN-1 + Trametinib”: C=CC(=O)Nc1cc(-n2c(=O)ccc3cnc4ccc(-c5ccc(NS(C)(=O)=O)cc5)cc4c32)ccc1C [BMX-IN-1] + CC(=O)Nc1cccc(-n2c(=O)n(C3CC3)c(=O)c3c(Nc4ccc(I)cc4F)n(C)c(=O)c(C)c32)c1 [Trametinib] (partner 0.02 µM)
In a few lines: (§1)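 Cells from lung cancer lines were seeded into 1536-well plates and, one day later, dosed by pin tool. Treatments were either a single drug or a fixed dose of an anchor drug with five library-drug doses (not always all listed) in √10 steps. After 5 days, nuclei were stained in a one-step fixation (final 0.05% Triton X-100, 1% formaldehyde, 1 ug/ml Hoechst) and counted on 4× images, and relative viability is the treated-to-vehicle nuclei ratio, as the median of duplicate plates.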

Compound in the assay “PAC-1 + Olaparib”: C=CCc1cccc(/C=N/NC(=O)CN2CCN(Cc3ccccc3)CC2)c1O [PAC-1] + O=C(c1cc(Cc2n[nH]c(=O)c3ccccc23)ccc1F)N1CCN(C(=O)C2CC2)CC1 [Olaparib] (partner 8 µM)
An outline of the steps:
as §1

Compound in the assay “BMX-IN-1 + Decitabine”: C=CC(=O)Nc1cc(-n2c(=O)ccc3cnc4ccc(-c5ccc(NS(C)(=O)=O)cc5)cc4c32)ccc1C [BMX-IN-1] + Nc1ncn([C@H]2C[C@H](O)[C@@H](CO)O2)c(=O)n1 [Decitabine] (partner 2 µM)
An outline of the steps: as §1

Compound in the assay “BMX-IN-1 + Navitoclax”: C=CC(=O)Nc1cc(-n2c(=O)ccc3cnc4ccc(-c5ccc(NS(C)(=O)=O)cc5)cc4c32)ccc1C [BMX-IN-1] + CC1(C)CCC(c2ccc(Cl)cc2)=C(CN2CCN(c3ccc(C(=O)NS(=O)(=O)c4ccc(N[C@H](CCN5CCOCC5)CSc5ccccc5)c(S(=O)(=O)C(F)(F)F)c4)cc3)CC2)C1 [Navitoclax] (partner 0.5 µM)
An outline of the steps: as §1

Compound in the assay “BMX-IN-1 + Vorinostat”: C=CC(=O)Nc1cc(-n2c(=O)ccc3cnc4ccc(-c5ccc(NS(C)(=O)=O)cc5)cc4c32)ccc1C [BMX-IN-1] + O=C(CCCCCCC(=O)Nc1ccccc1)NO [Vorinostat] (partner 1 µM)
An outline of the steps: as §1

Turning to SK-MES-1, the relative viability with BMX-IN-1 + Trametinib (first compound 0.02 µM) worked out at 0.603; in the assay with BMX-IN-1 + Trametinib (first compound 0.2 µM), 0.542; in the assay with BMX-IN-1 + Trametinib (first compound 0.6325 µM), 0.561; in the assay with BMX-IN-1 + Trametinib (first compound 2 µM), 0.537; with PAC-1 + Olaparib (first compound 0.02 µM), 0.717; with PAC-1 + Olaparib (first compound 0.06325 µM) it was 0.711. In addition, the relative viability with PAC-1 + Olaparib (first compound 0.2 µM) stood at 0.635; with PAC-1 + Olaparib (first compound 2 µM), 0.437; with BMX-IN-1 + Decitabine (first compound 0.02 µM) it was 0.398; with BMX-IN-1 + Decitabine (first compound 0.2 µM), 0.432; with BMX-IN-1 + Decitabine (first compound 0.6325 µM) it was 0.425; in the assay with BMX-IN-1 + Decitabine (first compound 2 µM), 0.637. Further, the relative viability worked out at 1.45 with BMX-IN-1 + Navitoclax (first compound 0.02 µM); 1.45 with BMX-IN-1 + Navitoclax (first compound 0.2 µM); 1.23 with BMX-IN-1 + Navitoclax (first compound 0.6325 µM); 1.1 with BMX-IN-1 + Navitoclax (first compound 2 µM); 1.1 with BMX-IN-1 + Vorinostat (first compound 0.02 µM); 1.18 with BMX-IN-1 + Vorinostat (first compound 0.2 µM). The relative viability with BMX-IN-1 + Vorinostat (first compound 0.6325 µM) came to 1.45; with BMX-IN-1 + Vorinostat (first compound 2 µM), 0.717.
